The record followed here is patent publication US4265901A, “2-Oxybenzimidazoline compounds” (priority 1979, dated 1981).

“And” between values parts separate entries of the source, which are not always exact repeats. Equal values may be shown once. Where a name gives a salt, the structure may show the parent alone.

Test [1] deals with Soybean. Briefly: Pre-emergence herbicide test, soybean. In kind it is in vivo. The protocol:
(§1) In this evaluation, each compound to be tested was dissolved in a 1:1 mixture of acetone and ethanol containing a small amount of Toximul R and Toximul S (each a sulfonate/nonionic blend produced by Stepan Chemical Company, Northfield, Illinois). The solution was then diluted with deionized water to a composition of the following concentrations, by weight: Plant species used as indicators of herbicidal activity were planted in galvanized pans (flats) 31.5 cm. long, 21.5 cm. wide, and 8.0 cm. deep. The bottoms of the flats had holes to facilitate drainage. The soil used was a 1:1 ratio by volume of masonry sand and shredded top soil. Flats that were to receive preemergence treatments were planted one day prior to, or on the same day treatments were applied. Flats that were to receive postemergence treatments were planted 9 days prior to treatment and placed in a growth chamber until the day of treatment. In the growth chamber, flats received 12 to 18 hours of light per day and were subject to temperatures of 75° to 85° F. The formulated test compound was applied uniformly to the indicator species with a modified DeVilbiss atomizer using air pressure of 3 to 5 psi. Each flat received 12.5 ml. of spray solution which was equal to 200 gallons/acre total spray volume. Plants were maintained in a greenhouse after treatment. Herbicidal effects of chemicals were evaluated by two injury rating systems 18 days after preemergence applications and 14 days after postemergence applications. The degree of plant injury was based on a 1 to 5 scale and a single numerical rating was assigned to each test species as follows: […]

The subject of test [2] is Southern armyworm. Put plainly: Southern armyworm test. For Southern Armyworm Stom. (mortality rating): ranges in brackets are in %. In kind it is in vivo, Spodoptera eridania. As to conditions: 1000 ppm, 4 days. As for the experimental part:
In this evaluation, each compound to be tested was dissolved in a 1:1 mixture of acetone and ethanol containing a small amount of Toximul R and Toximul S (each a sulfonate/nonionic blend produced by Stephan Chemical Company, Northfield, Ill.). The solution was then diluted with distilled water to a concentration of 1000 ppm of test compound.
This test was conducted with second to third instar larvae of Spodoptera eridania Cramer, Order Lepidoptera, Family Noctuidae. Uniform larvae (3rd instar) about 1 to 1.2 cm. in length were picked by hand from flats of Henderson lima beans and placed in plastic petri dishes.
The procedure otherwise was the same as used with the Mexican bean beetle reported above, except that 5 ml. of a formulation containing 100 ppm (0.01%) DDT [1,1,1-trichloro-2,2-bis(p-chlorophenyl)ethane] was used as the reference standard.

Test [3] deals with Cotton. Briefly: Pre-emergence herbicide test, cotton. In kind it is in vivo. The protocol:
as §1

The subject of test [4] is Alfalfa. Put plainly: Pre-emergence herbicide test, alfalfa. In kind it is in vivo. The protocol: as §1
The subject of test [5] is two-spotted spider mite. Put plainly: Two-spotted spider mite test. Note: ranges in brackets are in %. In kind it is in vivo, Tetranychus urticae. The note with it: 4 days. As for the experimental part: In this evaluation, each compound to be tested was dissolved in a 1:1 mixture of acetone and ethanol containing a small amount of Toximul R and Toximul S (each a sulfonate/nonionic blend produced by Stephan Chemical Company, Northfield, Ill.). The solution was then diluted with distilled water to a concentration of 1000 ppm of test compound. Lesser concentration formulations were made by diluting a portion of the 1000 ppm solution with distilled water containing 225 mg. of Toximul R and 125 mg. of Toximul S per liter.
This test was conducted with nymphs and adults of Tetranychus urticae (Koch), Order Acarina, Family Tetranychidae.
This test was run using blue hubbard squash plants which were grown in vermiculite (insulation grade No. 1) in 5 oz. plastic Dixie cups. One cotyledon is removed from each plant to remain in the cups. On retests two plants were left in each cup and on regular initial tests one plant was left in each cup. Each cotyledon is infested by placing a mite infested trifoliate bean leaf on if. Infected plants in cups were held for one day, then sprayed to wetting with formulations containing 1000 ppm of the test compound, using the DeVilbiss atomizer with 5-6 psi air pressure. Retests were run at 100 ppm. Tests were read four days after treatment. Two unsprayed but infested plants were held as a control. Two infested plants were sprayed with a formulation containing 750 ppm of galecron [N'-(4-chloro-o-tolyl)-N,N-dimethylformamidine monohydrochloride] as a reference standard.

For test [6], the system named is Cucumber. Briefly: Pre-emergence herbicide test, cucumber. In kind it is in vivo. The protocol:
as §1

Test [7] relates to Barnyard Grass. Briefly: Pre-emergence herbicide test, barnyard grass. In kind it is in vivo. As for the experimental part: as §1
Test [8] relates to Lambsquarter. Put plainly: Pre-emergence herbicide test, lambsquarter. In kind it is in vivo. As for the experimental part: as §1
For test [9], the system named is Morning-glory. Put plainly: Pre-emergence herbicide test, morningglory. In kind it is in vivo, Ipomoea purpurea. As for the experimental part: as §1, with “soil. Seeds of seven indicator species were planted in rows perpendicular to the long axis of the flat, one species per row, and covered with 0.5 to 1.0 cm. of sterilized soil. Indicator species and approximate number of seeds planted were as follows:” for “soil.”

On to `O=[N+]([O-])c1cc(C(F)(F)F)cc2c1NC(O)(C(F)(F)C(F)F)N2` (stereo not drawn) [Example 2, 2-Hydroxy-2-(1,1,2,2-Tetrafluoroethyl)-4-Nitro-6-(Trifluoromethyl)Benzimidazoline, Sodium Salt, and Hydrate], for which the plant injury rating in [1] (1/2 lb/A) is 1 (no injury); in test [1] (1/4 lb/A) it was 1 (no injury); in test [1] (1 lb/A), 1 (no injury); in test [1] (2 lb/A) it was 1 (no injury); in test [1] (4 lb/A), 2B; in test [3] (1/2 lb/A), 1 (no injury). The plant injury rating in test [3] (1/4 lb/A) is reported as 1 (no injury); in test [3] (2 lb/A), 1 (no injury); in test [3] (4 lb/A) it was 2B; in [4] (1/2 lb/A), 3SR; in [4] (1/4 lb/A) it was 1 (no injury); in test [4] (2 lb/A), 5D. Besides, the plant injury rating in test [4] (4 lb/A) is listed as 5N; in [6] (1/2 lb/A), 1 (no injury); in [6] (1/4 lb/A), 1 (no injury); in test [6] (1 lb/A), 1 (no injury); in [6] (2 lb/A), 1 (no injury); in [6] (4 lb/A) it was 4BS. Also, the plant injury rating is 1 (no injury) in test [7] (1/2 lb/A); 1 (no injury) in [7] (1/4 lb/A); 1 (no injury) in test [7] (2 lb/A); 2BS in test [7] (4 lb/A); 2S in [8] (1/2 lb/A); 1 (no injury) in test [8] (1/4 lb/A). Besides, the plant injury rating is recorded as 5D in test [8] (2 lb/A); 5D in [8] (4 lb/A); 1 (no injury) in [9] (1/2 lb/A); 1 (no injury) in test [9] (1/4 lb/A); 1 (no injury) in test [9] (1 lb/A); 2B in test [9] (2 lb/A). For the same compound, the values for the plant injury rating in test [9] (4 lb/A) and in test [9] (8 lb/A) were 4BS and 5N, respectively. Besides, the “Southern Armyworm Stom. (mortality rating)” value in test [2] was 0 (0). Further, the “2-Sp. Spider Mite Cont. (mortality rating)” value in test [5] (100 ppm) and in [5] (1000 ppm) was 3 (100) in each case.

For `O=[N+]([O-])c1cc(Cl)cc2c1NC(O)(C(F)F)N2` (stereo not drawn) [Example 5, 2-Hydroxy-2-(Difluoromethyl)-4-Nitro-6-Chlorobenzimidazoline, Calcium Salt], the “Southern Armyworm Feed. (feeding rating)” value in test [2] is 1 (1-50% of the leaves eaten). Further, the “Southern Armyworm Stom. (mortality rating)” value in test [2] (Calcium Salt) was 3 (100) and 2 (51-99). Further, the “2-Sp. Spider Mite Cont. (mortality rating)” value in test [5] (1000 ppm) is recorded as 3 (100). The compound also came in with a plant injury rating in test [9] (8 lb/A) of 3RS.

With `O=[N+]([O-])c1cc(C(F)(F)F)cc2c1NC(O)(C(F)(F)C(F)F)N2O` (stereo not drawn) [Example 12, 1,2-Dihydroxy-2-(1,1,2,2-Tetrafluoroethyl)-4-Nitro-6-(Trifluoromethyl)Benzimidazoline], the plant injury rating in [1] (1/2 lb/A), in test [1] (1 lb/A), in test [1] (2 lb/A), in test [3] (1/2 lb/A), in [3] (1 lb/A) and in test [3] (2 lb/A) was 1 (no injury) throughout. In addition, the plant injury rating is listed as 1 (no injury) in test [4] (1/2 lb/A); 1 (no injury) in test [4] (1 lb/A); 3SB in test [4] (2 lb/A); 1 (no injury) in test [6] (1/2 lb/A); 1 (no injury) in test [6] (1 lb/A); 1 (no injury) in test [6] (2 lb/A). Further, the plant injury rating in [7] (1/2 lb/A) is reported as 1 (no injury); in test [7] (1 lb/A) it was 1 (no injury); in test [7] (2 lb/A) it was 1 (no injury); in [8] (1/2 lb/A), 1 (no injury); in test [8] (1 lb/A) it was 3SB; in test [8] (2 lb/A), 3S. Also, the plant injury rating in test [9] (1/2 lb/A) is listed as 1 (no injury); in test [9] (1 lb/A), 1 (no injury); in [9] (2 lb/A), 1 (no injury); in [9] (8 lb/A), 3BS. For the same compound, the “Southern Armyworm Stom. (mortality rating)” value in test [2] is recorded as 0 (0). Also, the “2-Sp. Spider Mite Cont. (mortality rating)” value in [5] (1000 ppm) is 3 (100).
